Experiments:
KM12C (RONΔ160) = assay: MTS assay KM12C (Experimental Example 6); type: cell-based; conditions: Homo sapiens, 72 hours
Experimental: In MTS assay for Example 18 and Comparative Example 1, KM12C cell line was seeded at 1,000 cells per well into 96-well plates. After 24 hours, the cells were treated with various concentrations (0.000001 uM to 10 uM) of Example 18 and Comparative Example 1 in 100 ul of 10% FBS-MEM medium (Welgene) per well. Subsequently, the cells were incubated for 72 hours. Then, 20 μl of MTS solution (Promega) was added thereto, and incubation was performed for 2 hours. Then, the absorbance was measured at 490 nm. The IC50 values for Example 18 and Comparative Example 1 were calculated using GraphPad Prism™ 5 to investigate cytotoxicity.

active RON (pTyr-RON) = assay: Western blotting of active RON in KM12C; type: cell-based, human
Experimental: The cell killing efficacy of Example 18 and Comparative Example 1 was analyzed, and then the cells were collected. Western blotting was performed to identify inhibitory capacity of Example 18 on active RON. RIPA Lysis Buffer (T&I) was added to the respective cells so as to achieve lysis. Then, BCA kit (Pierce) was used to quantify proteins. The proteins were loaded onto 6% SDS-polyacrylamide with a protein concentration of 40 μg, and electrophoresis was performed at 125 V.
Subsequently, the proteins were reacted with primary antibody (active RON, beta actin), which was diluted 1:1,000 in 5% non-fat skim milk-TBST solution, at 4° C. for 24 hours or 48 hours. Then, washing with TBST was performed three times. The resultant was reacted with anti-rabbit and anti-mouse IgG conjugated horseradish peroxidase (HRP) secondary antibody, which was diluted at 1:1,000, at room temperature for 2 hours. Then, washing with TBST was washed three times. Subsequently, the membrane was treated with the ECL solution (GE Healthcare), and developed by exposure to an X-ray film. Then, the bands were checked.

RON mutant (Δ160) = target: T1, RON mutant (Δ160) (Homo sapiens, UniProt Q04912); assay: Kinase assay for RON mutant Δ160 in transfected Colo320HSR (immunoprecipitation, Western blotting); type: cell-based; conditions: Colo320HSR transfected with RONΔ160, 2 hours of drug treatment
T1 construct: expressed in transfected cells; host or cells: Colo320HSR (RON-negative colon cancer cell line)
T1 sequence (Q04912 25-1294 isoform Q04912-7 limits assumed): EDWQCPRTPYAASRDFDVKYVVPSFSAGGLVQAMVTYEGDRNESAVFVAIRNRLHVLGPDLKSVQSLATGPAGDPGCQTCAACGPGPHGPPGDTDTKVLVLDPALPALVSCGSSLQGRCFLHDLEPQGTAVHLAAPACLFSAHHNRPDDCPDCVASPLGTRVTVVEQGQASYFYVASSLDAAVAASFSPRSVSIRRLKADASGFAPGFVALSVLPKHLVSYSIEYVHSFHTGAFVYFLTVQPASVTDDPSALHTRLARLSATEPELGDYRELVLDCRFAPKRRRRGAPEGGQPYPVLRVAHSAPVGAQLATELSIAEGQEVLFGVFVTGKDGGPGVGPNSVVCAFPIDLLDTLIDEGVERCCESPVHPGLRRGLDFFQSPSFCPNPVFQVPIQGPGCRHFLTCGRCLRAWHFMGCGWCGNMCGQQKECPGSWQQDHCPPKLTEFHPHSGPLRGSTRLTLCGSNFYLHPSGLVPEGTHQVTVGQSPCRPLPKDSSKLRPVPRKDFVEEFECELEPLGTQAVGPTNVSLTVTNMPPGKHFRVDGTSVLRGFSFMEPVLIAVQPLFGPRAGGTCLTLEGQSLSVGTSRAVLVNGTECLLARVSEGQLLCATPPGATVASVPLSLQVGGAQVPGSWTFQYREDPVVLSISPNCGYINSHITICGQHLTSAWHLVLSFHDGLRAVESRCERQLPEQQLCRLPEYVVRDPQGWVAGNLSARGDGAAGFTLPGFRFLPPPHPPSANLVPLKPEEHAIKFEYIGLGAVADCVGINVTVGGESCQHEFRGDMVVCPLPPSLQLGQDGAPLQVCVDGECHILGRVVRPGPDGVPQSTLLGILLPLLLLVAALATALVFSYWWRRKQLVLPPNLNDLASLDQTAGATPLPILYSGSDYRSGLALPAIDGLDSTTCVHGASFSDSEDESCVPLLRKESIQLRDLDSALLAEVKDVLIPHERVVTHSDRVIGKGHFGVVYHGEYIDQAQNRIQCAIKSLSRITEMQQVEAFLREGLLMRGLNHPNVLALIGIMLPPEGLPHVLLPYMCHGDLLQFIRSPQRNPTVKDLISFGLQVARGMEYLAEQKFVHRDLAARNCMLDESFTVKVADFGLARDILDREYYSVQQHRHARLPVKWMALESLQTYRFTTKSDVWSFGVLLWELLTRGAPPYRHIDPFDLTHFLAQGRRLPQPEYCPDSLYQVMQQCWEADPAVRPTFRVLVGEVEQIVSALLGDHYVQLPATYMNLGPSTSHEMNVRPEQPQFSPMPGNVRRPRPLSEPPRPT
T1 sequence (Q04912 25-304 partner limits assumed): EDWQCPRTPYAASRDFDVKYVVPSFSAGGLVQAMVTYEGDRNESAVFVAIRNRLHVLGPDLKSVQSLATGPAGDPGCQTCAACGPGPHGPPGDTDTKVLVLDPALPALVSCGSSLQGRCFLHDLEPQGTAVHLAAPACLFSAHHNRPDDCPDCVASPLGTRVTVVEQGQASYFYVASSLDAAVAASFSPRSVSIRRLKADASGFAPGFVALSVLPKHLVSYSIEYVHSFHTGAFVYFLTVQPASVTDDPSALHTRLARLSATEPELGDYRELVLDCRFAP
Experimental: As a way capable of replacing RON mutant, each of the mutants (Δ160, Δ155) was transfected into Colo320HSR, a RON-negative cell line, and the cell line was subjected to treatment with Example 18 or Comparative Example 1 at respective concentrations. Then, it was checked, through immunoprecipitation and Western blotting, whether expression of active RON decreases. The detailed method is as follows. The RON-negative Colo320SHR colon cancer cell line was transfected with 12 ug of each of RONΔ160 and RON Δ155 using lipofectamine 2000 (Invitrogen, cat #11668-019). For the same transfection efficiency, after 24 hours, the transformed strains were dispensed into a 60-mm dish. 48 hours after transfection, treatment with drugs of Comparative Example 1 and Example 18 was performed, respectively, in a dose-dependent manner. After 2 hours of drug treatment, the cells were collected and washed with PBS. Then, the washed cells were lysed with RIPA Lysis Buffer (T&I, cat #BRI-9001).
Protein concentrations were quantified using the Bradford (BioRad, cat #5000205) method. […]
Electrophoresis was performed using SDS-PAGE, and then proteins were transferred to PVDF membrane. […] The developed film was analyzed with densitometry using Image-J, and then IC50 was calculated using Graphpad Prism (GraphPad Software, Inc.).

[1] = test system: KM12C cell line (active RON/RON mutant (Δ160)) tumor; assay: Tumor growth inhibition in animal model transplanted with KM12C (Experimental Example 10); type: in vivo, BALB/c nude mice
Experimental: 5-Week-old female BALB/c nude mice were purchased and acclimatized for 1 week. Then, human-derived colon cancer cell line KM12C (1.5×10^6 cells/mice) (cell line expressing active RON/RON mutant (Δ160)) was diluted in PBS, and injected subcutaneously (100 μl) into the right dorsal side of the mice. Comparative Examples 1 and Example 18 were orally administered when the tumor reached a size of about 100 mm^3. The drug was administered once a day for 2 weeks, and tumor size and body weight were measured twice a week. […] In addition, after completion of the drug administration, the experimental animals were euthanized, and then the tumors were extracted and weighed.
In addition, a portion of the extracted tumor tissue was fixed with 10% formalin, and then a paraffin block was produced therefrom. Then, changes in expression of each protein were checked through immunochemical staining. As a result, it was identified that in the group having received Example 18, expression of the active RON and p-ERK decreases, whereas expression of cleaved caspase 3 is induced (FIG. 11). Tumor tissues were collected from the vehicle group and the 5 mpk (mg/kg) treatment group, and changes in protein expression were compared through Western blotting.

[2] = test system: colon cancer patient tissue (active RON/RON mutant #1: Δ160); assay: Efficacy in animal model transplanted with colon cancer patient tissue, 30 mpk; type: in vivo; conditions: 30 mpk for 4 weeks
Experimental: Example 18 and Comparative Example 1 were administered to an animal model transplanted with the same patient tissue (active RON/RON mutant #1: Δ160) cells as in the animal model transplanted with colon cancer patient tissue tumor cells at 30 mpk for 4 weeks. […] The lower pictures of FIG. 21 show tumors extracted from representative individuals of the respective groups.

[3] = 5 mpk (mg/kg) treatment group vs vehicle

CCOc1ccn(-c2ccc(F)cc2)c(=O)c1C(=O)Nc1ccc(Oc2ccnc3cc(-c4ccc(CN5CCOCC5)cn4)sc23)c(F)c1.Cl [Example 18, 4-ethoxy-N-[3-fluoro-4-({2-[5-(morpholinomethyl)pyridin-2-yl]thieno[3,2-b]pyridine-7-yl}oxy)phenyl]-1-(4-fluorophenyl)-2-oxo-1,2-dihydropyridine-3-carboxamide hydrochloride]
IC50 (KM12C (RONΔ160)): 6.9 nM
expression of active RON (Western blotting) (active RON (pTyr-RON)): decreases
inhibition of RON activity (degree of active RON) (RON mutant (Δ160)): high inhibition efficacy as compared with Comparative Example 1
active RON expression level in tumor tissue (Western blotting) [1, 3]: decreased expression level
cleaved caspase 3 expression level in tumor tissue (Western blotting) [1, 3]: increased expression level
expression of cleaved caspase 3 in tumor tissue (immunochemical staining) ([1]; extracted tumor tissue): induced
expression of the active RON and p-ERK in tumor tissue (immunochemical staining) ([1]; extracted tumor tissue): decreases
change in mouse body weight ([1]; oral, once a day for 2 weeks): no change in mouse body weight
tumor growth inhibition efficacy (tumor size) ([1]; oral, once a day for 2 weeks): tumor growth inhibition efficacy with drug administration was observed
tumor weight compared with the vehicle group ([1]; oral, once a day for 2 weeks): decreased tumor weight was observed
tumor growth inhibition efficacy [2]: about 73%
